Assay [1] concerns the target Proto-oncogene tyrosine-protein kinase receptor Ret (Homo sapiens, UniProt P07949).
Assay [2] addresses DNA topoisomerase 2-alpha (Homo sapiens, UniProt P11388).
The target of assay [3] is Epidermal growth factor receptor (Homo sapiens, UniProt P00533).
The target of assay [4] is Dual specificity testis-specific protein kinase 1 (Homo sapiens, UniProt Q15569).
In assay [5] the target is Glycogen synthase kinase-3 beta (Homo sapiens, UniProt P49841).
Assay [6] has as its target Dual specificity protein kinase CLK4 (Homo sapiens, UniProt Q9HAZ1).
The target of assay [7] is T1, Cyclin-dependent kinase-like 5 (Homo sapiens, UniProt O76039).
T1 sequence (O76039 whole entry): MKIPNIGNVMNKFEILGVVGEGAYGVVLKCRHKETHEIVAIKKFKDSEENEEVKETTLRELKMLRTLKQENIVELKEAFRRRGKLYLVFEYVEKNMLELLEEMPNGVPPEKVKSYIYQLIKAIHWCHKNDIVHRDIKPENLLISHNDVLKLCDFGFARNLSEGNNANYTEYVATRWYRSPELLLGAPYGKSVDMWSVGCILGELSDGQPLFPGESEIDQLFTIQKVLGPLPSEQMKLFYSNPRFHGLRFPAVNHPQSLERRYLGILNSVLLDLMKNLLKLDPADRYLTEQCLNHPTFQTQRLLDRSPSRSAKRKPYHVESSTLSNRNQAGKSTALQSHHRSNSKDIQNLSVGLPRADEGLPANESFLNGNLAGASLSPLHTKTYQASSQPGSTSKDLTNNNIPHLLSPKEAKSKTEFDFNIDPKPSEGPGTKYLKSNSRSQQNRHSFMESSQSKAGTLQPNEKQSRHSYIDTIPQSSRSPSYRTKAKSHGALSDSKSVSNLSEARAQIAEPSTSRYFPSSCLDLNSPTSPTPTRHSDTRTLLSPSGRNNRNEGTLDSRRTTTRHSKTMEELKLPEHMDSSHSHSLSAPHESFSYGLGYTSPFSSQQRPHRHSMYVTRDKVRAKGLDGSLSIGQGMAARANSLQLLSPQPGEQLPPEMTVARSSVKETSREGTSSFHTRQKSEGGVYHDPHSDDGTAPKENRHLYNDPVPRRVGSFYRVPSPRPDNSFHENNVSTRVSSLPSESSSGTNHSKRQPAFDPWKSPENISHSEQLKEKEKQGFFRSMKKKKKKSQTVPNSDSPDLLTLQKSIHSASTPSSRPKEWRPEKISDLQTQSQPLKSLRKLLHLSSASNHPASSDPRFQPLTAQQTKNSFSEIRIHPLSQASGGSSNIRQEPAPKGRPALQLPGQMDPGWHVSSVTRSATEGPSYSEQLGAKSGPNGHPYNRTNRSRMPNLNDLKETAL

For assay [8], the target named is Membrane-associated progesterone receptor component 1 (Homo sapiens, UniProt O00264).
Assay [9] deals with Mitogen-activated protein kinase 14 (Homo sapiens, UniProt Q16539).
The target in assay [10] is Dual specificity protein kinase CLK2 (Homo sapiens, UniProt P49760).
Chain of Dual specificity protein kinase CLK2 (P49760 whole entry): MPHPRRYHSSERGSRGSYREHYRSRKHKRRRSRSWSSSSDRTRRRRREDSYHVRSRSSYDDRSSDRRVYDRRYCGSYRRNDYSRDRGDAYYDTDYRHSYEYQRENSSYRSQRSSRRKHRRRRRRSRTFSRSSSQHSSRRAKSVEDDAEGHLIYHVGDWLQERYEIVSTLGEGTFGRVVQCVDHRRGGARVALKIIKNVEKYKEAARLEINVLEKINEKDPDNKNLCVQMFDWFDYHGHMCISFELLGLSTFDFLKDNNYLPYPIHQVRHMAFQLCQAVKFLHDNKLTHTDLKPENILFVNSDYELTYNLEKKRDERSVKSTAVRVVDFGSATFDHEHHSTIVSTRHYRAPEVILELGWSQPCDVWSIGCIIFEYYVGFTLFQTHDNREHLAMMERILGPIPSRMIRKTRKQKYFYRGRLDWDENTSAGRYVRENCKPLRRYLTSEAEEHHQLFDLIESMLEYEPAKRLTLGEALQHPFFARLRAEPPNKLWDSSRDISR
Assay [11] concerns the target Serine/threonine-protein kinase ATR (Homo sapiens, UniProt Q13535).
For assay [12], the target named is Phosphatidylethanolamine-binding protein 1 (Homo sapiens, UniProt P30086).
Chain of Phosphatidylethanolamine-binding protein 1 (P30086 whole entry): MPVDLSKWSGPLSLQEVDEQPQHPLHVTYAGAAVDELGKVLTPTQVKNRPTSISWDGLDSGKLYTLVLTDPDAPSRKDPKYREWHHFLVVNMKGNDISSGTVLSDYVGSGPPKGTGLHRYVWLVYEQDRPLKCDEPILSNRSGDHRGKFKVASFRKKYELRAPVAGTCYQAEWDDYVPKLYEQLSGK
In assay [13] the target is Cell division cycle 7-related protein kinase (Homo sapiens, UniProt O00311).
Chain of Cell division cycle 7-related protein kinase (O00311 whole entry): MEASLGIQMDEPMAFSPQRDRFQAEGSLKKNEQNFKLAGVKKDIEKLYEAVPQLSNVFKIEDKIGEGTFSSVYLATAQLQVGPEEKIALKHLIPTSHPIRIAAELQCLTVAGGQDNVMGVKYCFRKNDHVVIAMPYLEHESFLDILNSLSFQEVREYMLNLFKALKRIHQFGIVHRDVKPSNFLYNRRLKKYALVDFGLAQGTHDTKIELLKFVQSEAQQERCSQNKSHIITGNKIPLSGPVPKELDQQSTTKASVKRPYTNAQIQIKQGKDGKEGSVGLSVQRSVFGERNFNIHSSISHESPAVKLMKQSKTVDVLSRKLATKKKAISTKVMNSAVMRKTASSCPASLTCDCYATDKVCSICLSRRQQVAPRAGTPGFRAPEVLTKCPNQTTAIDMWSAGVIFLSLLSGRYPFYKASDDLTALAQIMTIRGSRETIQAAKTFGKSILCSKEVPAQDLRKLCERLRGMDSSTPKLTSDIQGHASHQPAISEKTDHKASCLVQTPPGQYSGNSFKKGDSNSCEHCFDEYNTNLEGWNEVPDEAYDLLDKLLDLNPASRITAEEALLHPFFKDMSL

Active and inactive are the calls of the source.
Note: in the data inactive means no Kd found up to 30 µM.

Chain of Serine/threonine-protein kinase ATR (Q13535 whole entry): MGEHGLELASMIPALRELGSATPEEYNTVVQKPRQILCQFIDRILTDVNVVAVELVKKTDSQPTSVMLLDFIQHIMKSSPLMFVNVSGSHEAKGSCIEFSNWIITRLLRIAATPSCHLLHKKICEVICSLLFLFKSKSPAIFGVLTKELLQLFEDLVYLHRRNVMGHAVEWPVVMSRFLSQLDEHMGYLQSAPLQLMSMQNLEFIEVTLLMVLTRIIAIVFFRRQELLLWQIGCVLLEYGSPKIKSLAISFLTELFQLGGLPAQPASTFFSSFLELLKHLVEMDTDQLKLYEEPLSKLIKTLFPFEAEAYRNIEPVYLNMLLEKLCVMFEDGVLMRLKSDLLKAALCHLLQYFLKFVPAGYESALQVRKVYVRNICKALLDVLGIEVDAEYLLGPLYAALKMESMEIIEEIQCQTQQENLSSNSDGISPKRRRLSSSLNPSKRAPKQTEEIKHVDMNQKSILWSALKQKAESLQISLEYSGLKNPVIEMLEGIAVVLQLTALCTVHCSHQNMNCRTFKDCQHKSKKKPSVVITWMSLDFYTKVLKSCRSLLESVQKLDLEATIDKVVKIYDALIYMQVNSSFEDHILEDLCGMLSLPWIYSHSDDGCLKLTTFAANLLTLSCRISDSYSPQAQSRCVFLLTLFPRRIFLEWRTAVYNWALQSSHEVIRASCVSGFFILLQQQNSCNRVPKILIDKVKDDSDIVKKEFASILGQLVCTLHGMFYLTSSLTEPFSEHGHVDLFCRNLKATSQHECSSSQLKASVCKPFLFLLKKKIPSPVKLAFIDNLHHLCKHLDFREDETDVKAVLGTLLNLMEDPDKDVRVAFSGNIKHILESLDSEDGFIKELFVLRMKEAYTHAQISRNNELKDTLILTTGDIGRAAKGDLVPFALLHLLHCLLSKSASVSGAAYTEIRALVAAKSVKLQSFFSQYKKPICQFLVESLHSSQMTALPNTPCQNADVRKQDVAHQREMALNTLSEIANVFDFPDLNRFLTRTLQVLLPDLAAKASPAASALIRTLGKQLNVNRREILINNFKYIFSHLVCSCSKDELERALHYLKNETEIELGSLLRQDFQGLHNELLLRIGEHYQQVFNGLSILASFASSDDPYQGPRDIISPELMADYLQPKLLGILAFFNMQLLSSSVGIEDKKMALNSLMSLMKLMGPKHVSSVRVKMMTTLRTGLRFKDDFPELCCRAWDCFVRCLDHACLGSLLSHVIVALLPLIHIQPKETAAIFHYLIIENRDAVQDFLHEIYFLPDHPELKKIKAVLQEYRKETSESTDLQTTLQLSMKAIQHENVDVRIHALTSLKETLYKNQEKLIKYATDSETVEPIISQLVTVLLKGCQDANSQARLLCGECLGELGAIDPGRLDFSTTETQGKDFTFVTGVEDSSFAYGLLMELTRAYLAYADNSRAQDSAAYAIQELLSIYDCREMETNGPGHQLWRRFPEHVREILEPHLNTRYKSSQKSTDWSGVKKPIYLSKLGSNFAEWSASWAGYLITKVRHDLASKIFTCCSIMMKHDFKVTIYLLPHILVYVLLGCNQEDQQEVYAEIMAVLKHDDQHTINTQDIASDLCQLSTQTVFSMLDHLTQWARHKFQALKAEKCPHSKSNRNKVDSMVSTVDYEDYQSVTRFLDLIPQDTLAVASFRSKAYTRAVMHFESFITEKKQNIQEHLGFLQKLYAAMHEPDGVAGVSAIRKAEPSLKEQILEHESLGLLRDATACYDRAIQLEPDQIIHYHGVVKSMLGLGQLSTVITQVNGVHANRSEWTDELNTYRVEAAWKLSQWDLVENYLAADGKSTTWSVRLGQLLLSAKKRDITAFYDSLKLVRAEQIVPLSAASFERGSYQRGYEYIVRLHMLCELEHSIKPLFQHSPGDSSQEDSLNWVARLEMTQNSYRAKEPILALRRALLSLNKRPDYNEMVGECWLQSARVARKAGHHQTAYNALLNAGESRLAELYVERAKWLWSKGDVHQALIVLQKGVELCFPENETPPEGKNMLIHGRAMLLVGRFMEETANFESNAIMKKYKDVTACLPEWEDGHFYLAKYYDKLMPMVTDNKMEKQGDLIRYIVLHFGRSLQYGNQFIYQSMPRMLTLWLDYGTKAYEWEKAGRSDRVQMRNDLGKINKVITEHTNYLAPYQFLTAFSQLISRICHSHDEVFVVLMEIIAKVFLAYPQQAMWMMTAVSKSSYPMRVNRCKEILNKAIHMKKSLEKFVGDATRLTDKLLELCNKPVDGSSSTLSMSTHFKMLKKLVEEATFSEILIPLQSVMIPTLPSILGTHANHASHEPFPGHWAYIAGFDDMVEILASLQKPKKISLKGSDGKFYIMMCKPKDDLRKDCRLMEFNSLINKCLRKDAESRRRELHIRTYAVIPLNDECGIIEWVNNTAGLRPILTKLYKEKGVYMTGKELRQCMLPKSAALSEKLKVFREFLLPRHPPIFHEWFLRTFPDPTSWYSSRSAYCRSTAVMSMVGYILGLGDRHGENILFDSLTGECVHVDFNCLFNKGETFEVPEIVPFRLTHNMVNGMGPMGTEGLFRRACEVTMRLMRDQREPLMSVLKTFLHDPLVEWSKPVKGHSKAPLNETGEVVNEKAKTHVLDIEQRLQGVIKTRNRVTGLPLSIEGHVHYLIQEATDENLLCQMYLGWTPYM
Chain of Epidermal growth factor receptor (P00533 whole entry): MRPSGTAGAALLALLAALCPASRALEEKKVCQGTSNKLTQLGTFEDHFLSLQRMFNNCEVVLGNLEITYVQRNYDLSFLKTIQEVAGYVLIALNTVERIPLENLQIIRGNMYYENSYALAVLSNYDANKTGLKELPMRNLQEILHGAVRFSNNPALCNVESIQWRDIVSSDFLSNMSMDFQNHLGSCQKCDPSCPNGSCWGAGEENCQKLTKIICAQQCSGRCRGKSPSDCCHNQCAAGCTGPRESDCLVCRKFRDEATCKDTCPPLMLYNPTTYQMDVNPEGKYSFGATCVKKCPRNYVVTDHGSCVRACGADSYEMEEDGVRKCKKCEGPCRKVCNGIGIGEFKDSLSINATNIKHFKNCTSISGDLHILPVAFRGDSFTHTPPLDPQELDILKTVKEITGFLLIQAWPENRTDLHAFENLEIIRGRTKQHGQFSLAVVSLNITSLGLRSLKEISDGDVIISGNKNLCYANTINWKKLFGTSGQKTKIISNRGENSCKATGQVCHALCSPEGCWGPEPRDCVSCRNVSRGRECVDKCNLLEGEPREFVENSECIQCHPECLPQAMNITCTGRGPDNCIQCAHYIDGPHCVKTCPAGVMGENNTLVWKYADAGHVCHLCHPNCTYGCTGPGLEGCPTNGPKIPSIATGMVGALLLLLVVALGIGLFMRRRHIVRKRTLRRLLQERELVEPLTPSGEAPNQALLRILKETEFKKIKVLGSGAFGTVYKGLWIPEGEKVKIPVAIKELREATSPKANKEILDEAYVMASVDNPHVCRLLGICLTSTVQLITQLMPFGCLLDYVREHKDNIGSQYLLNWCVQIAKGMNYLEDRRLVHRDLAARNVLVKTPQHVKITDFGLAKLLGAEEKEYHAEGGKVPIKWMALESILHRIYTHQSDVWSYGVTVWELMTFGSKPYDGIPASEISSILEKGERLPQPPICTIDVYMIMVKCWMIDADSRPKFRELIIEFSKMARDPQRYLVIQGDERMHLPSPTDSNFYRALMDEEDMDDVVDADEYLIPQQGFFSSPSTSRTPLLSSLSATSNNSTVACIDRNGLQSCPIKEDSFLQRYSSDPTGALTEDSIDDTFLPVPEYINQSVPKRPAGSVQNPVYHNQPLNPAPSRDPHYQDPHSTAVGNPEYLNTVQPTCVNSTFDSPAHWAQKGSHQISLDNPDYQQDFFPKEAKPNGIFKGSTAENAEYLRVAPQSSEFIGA

For the compound `CCc1nc(C(N)=O)c(Nc2ccc(N3CCC(N4CCN(C)CC4)CC3)c(OC)c2)nc1NC1CCOCC1` [GILTERITINIB], the dissociation constant Kd is 0.05 µM (active) in [1]; > 30 µM (inactive) in assay [2]; 3.5 µM (active) in assay [3]; > 30 µM (inactive) in assay [4]; > 30 µM (inactive) in [5]; > 30 µM (inactive) in assay [6]. Also, the Kd in assay [7], in [8] and in assay [9] was > 30 µM (inactive) throughout.
As to `CNC(=O)c1cc(COc2nnc(Nc3ccc(Cl)cc3)c3ccoc23)ccn1` [TELATINIB], the Kd in [1], in [2], in assay [3], in assay [4], in assay [5] and in assay [10] was > 30 µM (inactive) throughout. The Kd in [11], in assay [8], in assay [12] and in assay [9] was > 30 µM (inactive) throughout.
As to `COc1cc2c(N3CCN(C(=O)Nc4ccc(OC(C)C)cc4)CC3)ncnc2cc1OCCCN1CCCCC1` [TANDUTINIB], in [13], the Kd is > 30 µM (inactive).
As for `CNC(=O)c1ccc(Nc2ncc(C(F)(F)F)c(NCc3nccnc3N(C)S(C)(=O)=O)n2)cc1` [DEFACTINIB], the Kd in assay [1] is 27.5 µM (active); in [2], > 30 µM (inactive); in assay [3], > 30 µM (inactive); in assay [4], > 30 µM (inactive); in assay [5] it was 1.32 µM (active); in [10], > 30 µM (inactive). The Kd was > 30 µM (inactive) in assay [13]; > 30 µM (inactive) in assay [11]; 0.016 µM in assay [7]; > 30 µM (inactive) in [8]; > 30 µM (inactive) in assay [9].
In the case of `Cc1cc(C(=O)Nc2cc(Oc3ccc4nc(NC(=O)C5CC5)cn4n3)ccc2C)n(C)n1` [TAK-593], the Kd in assay [2], in [3], in [4], in [5], in [10] and in assay [6] was > 30 µM (inactive) throughout. Besides, the Kd in [7] and in [9] was > 30 µM (inactive) each time.
With `O=c1[nH]c([C@@H]2CCCN2)nc2c1oc1ccc(Cl)cc12`, the Kd in assay [1] was > 30 µM (inactive); in [2], > 30 µM (inactive); in [3], > 30 µM (inactive); in assay [5], 8.79 µM; in assay [13], > 30 µM (inactive); in [11] it was > 30 µM (inactive). The Kd in assay [8] and in [12] was > 30 µM (inactive) each time.
As for `COc1cccc(Nc2ncnn3ccc(CN4CC[C@@H](N)[C@H](O)C4)c23)c1` [BMS-690514], the Kd was 0.034 µM (active) in assay [1]; 0.225 µM (active) in assay [3]; > 30 µM (inactive) in [4]; > 30 µM (inactive) in assay [5]; > 30 µM (inactive) in assay [7]; > 30 µM (inactive) in assay [12]. Further, in assay [9], the Kd was > 30 µM (inactive).
As for `Cc1c(NC(=O)OC[C@@H]2COCCN2)cn2ncnc(Nc3ccc4c(cnn4Cc4cccc(F)c4)c3)c12` [AC-480], the Kd in assay [1] was > 30 µM (inactive); in assay [3] it was 0.003 µM (active); in assay [4], > 30 µM (inactive); in assay [5], > 30 µM (inactive); in assay [12] it was > 30 µM (inactive); in assay [9], > 30 µM (inactive).
Take `C[C@]1(O)C[C@@H](c2nc(-c3ccc4ccc(-c5ccccc5)nc4c3)c3c(N)nccn32)C1` [LINSITINIB]: the Kd in assay [4], in assay [13] and in assay [8] was > 30 µM (inactive) each time.
Consider `CC[C@@](C)(Nc1ccnc(-c2c[nH]c3ncccc23)n1)C(=O)NCC(F)(F)F` [DECERNOTINIB], for which the Kd is > 30 µM (inactive) in assay [1]; 0.064 µM in [2]; > 30 µM (inactive) in [3]; > 30 µM (inactive) in assay [4]; > 30 µM (inactive) in [5]; > 30 µM (inactive) in assay [7]. Besides, the Kd in [8] and in assay [9] was > 30 µM (inactive) throughout.

The record behind these values is ChEMBL document CHEMBL3991601, “The target landscape of clinical kinase drugs” (Science, 2017).
